Results as given in publication PMC11973072, “Computational screening for novel α-glucosidase inhibitory peptides from Chlamys nobilis adductor muscle as a potential antidiabetic agent” (Frontiers in Nutrition, 2025).
Where “and” joins values, the source holds several entries; their conditions need not be identical. Identical values can stand only once. Marks after values point to notes of the source that are not given here. One block for each molecule: values may come before it. Where no end group is shown, it is not given here.

Legend:
[1] = tested on: glucose metabolizing enzyme; settings: extracted from Spirulina; cited from earlier work
Excerpt: (§1) Marine proteins have a novel amino acid composition, which is one of the important sources for the production of bioactive peptides ([11], [12]). There have been a number of studies on natural hypoglycemic active peptides from marine sources such as Trachurus trachurus, Euphausia superba, Chlorella vulgaris and Crassostrea gigas ([11], [13–15]).

[2] = pH 7.4
α-glucosidase = α-glucosidase (Saccharomyces cerevisiae, UniProt P53341); settings: cited from earlier work
Excerpt: as §1, with “[13-15]). […] The molecular weight of protein hydrolysates is a determinant of their biological activity, and peptide fractions with low molecular weights are highly biologically active ([33]).” for “[13–15]).”

blood glucose = experiment: Effect of EHCA on blood glucose in normal mice (starch gavage); format: in vivo, Kunming mice
Method: Fifty healthy adult male Kunming mice were purchased from Zhuhai Bestest Biotechnology Co., Ltd. The experiments were approved by the Animal Ethics Committee of Guangdong Ocean University with the approval number of GDOU-LAE-2021-002, approved on 6 April 2021. Before the experiment, all animals were watered and fed freely for 7 days. […] The groups were mixed with soluble starch (250 mg/kg) and gavaged synchronously for 3 d. […] Where G0 is the pre-dose fasting blood glucose value, mmol/L; […] Area under the curve (AUC) was calculated applying the following formula (Equation 4): (4) […]/4.

SOD in liver = experiment: Hepatic superoxide dismutase (SOD) activity; format: in vivo, Kunming mice; settings: PC, metformin 150 mg/kg
Method: (§2) Fifty healthy adult male Kunming mice were purchased from Zhuhai Bestest Biotechnology Co., Ltd. The experiments were approved by the Animal Ethics Committee of Guangdong Ocean University with the approval number of GDOU-LAE-2021-002, approved on 6 April 2021. Before the experiment, all animals were watered and fed freely for 7 days. […] The groups were mixed with soluble starch (250 mg/kg) and gavaged synchronously for 3 d.

serum insulin = experiment: Effect of EHCA on serum insulin (INS); format: in vivo, Kunming mice; settings: PC, metformin 150 mg/kg, mean ± SD, n = 10 mice
Method: as §2, with “3 d. […] Effects of EHCA on mice at the end of the test, blood was taken from the eyeballs of mice, which were executed in the decapitated position, and the organs were collected for subsequent experiments. […] (5) […] Where WISI is the insulin sensitivity index; WFPG is fasting blood glucose, mmol/[…] is fasting insulin content (μU/mL); and WFBCI is the insulin secretion index.” for “3 d.”

Chain of α-glucosidase (P53341 whole entry): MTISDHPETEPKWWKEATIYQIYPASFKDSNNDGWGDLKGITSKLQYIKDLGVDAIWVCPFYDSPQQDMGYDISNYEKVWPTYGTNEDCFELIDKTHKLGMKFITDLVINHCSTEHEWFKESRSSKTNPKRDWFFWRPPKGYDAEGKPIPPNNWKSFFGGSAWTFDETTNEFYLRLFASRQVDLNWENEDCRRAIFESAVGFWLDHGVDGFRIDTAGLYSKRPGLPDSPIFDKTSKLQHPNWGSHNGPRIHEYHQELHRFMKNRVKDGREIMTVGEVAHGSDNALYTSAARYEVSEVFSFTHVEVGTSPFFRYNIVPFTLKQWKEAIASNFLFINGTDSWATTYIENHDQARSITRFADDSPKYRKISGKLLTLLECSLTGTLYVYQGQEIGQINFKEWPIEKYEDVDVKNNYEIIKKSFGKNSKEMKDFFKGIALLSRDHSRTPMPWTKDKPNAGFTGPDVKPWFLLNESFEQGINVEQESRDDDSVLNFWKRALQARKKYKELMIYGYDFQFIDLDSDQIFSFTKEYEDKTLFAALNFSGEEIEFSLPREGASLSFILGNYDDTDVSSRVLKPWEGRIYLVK

Molecule: USW: anti-diabetic peptide USW extracted from Spirulina (LRSELAAWSR)
- effect on insulin resistance / glucose metabolizing enzyme [1]: improve insulin resistance by significantly increasing activity of glucose metabolizing enzyme

- solubility [2]: good solubility
Molecule: TDADHKF [TDADHKF, Thr-Asp-Ala-Asp-His-Lys-Phe]

Molecule: LPLLR [Walnut-derived peptide LPLLR]
- inhibition of α-glucosidase (α-glucosidase; 2 mM, walnut-derived): 50.12%

- solubility [2]: good solubility
Molecule: KLNSTTEKLEE

Molecule: LRSELAAWSR [peptide from Spirulina platensis]
- IC50 (α-glucosidase; from Spirulina platensis): 134 µM
- IC50, inhibitory activity against α-glucosidase (α-glucosidase; from Spirulina platensis): 134.2 µg/mL

Molecule: CN(C)C(=N)N=C(N)N [metformin]
- blood glucose values after gavage vs NC (in words) (blood glucose; 0.5 h and 2 h of gavage, compared with the NC group, p < 0.05): significantly reduce the blood glucose values
- AUC of blood glucose (in words) (blood glucose; EHCA 500-2,000 mg/kg or metformin 150 mg/kg, relative to NC group, p < 0.05, n = 10): markedly reduced the AUC values
- Blood glucose value, G1 (blood glucose; PC, metformin 150 mg/kg, gavage 3 d, fasting at the end of dosing, mean ± SD, n = 10 mice): 3.21 ± 0.20^a mmol/L
- Blood glucose value, 0.5 h (blood glucose; PC, metformin 150 mg/kg, gavage 3 d with soluble starch, 0.5 h, mean ± SD, n = 10 mice, listed as PC): 8.45 mmol/L
- Blood glucose value, 2 h (blood glucose; PC, metformin 150 mg/kg, gavage 3 d with soluble starch, 2 h, mean ± SD, n = 10 mice, listed as PC): 6.87 ± 1.14 mmol/L and 6.87 mmol/L
- Blood glucose value, G0 (blood glucose; PC, metformin 150 mg/kg, pre-dose fasting, mean ± SD, n = 10 mice): 4.94 ± 1.71^a mmol/L
- hypoglycemic rate (in words) (blood glucose; fasted mice, EHCA 500-2,000 mg/kg or metformin 150 mg/kg, 3 d, compared with the NC group, n = 10): significantly increased the hypoglycemic rate
- SOD activity in liver (SOD in liver; WST-8 method, mean ± SD, n = 10 mice, NC 242.00 ± 66.43): 363.55 ± 18.09 U/mL
- increase of SOD activity in liver (SOD in liver; compared to the NC group): 50.23%
- Fasting serum insulin (serum insulin; ELISA): 29.82 ± 5.50^a mIU/L
- Insulin secretion index (serum insulin): 8.50 ± 1.12^a
- Insulin sensitivity index (serum insulin): 2.13 ± 0.13^a
